Assay results as given in ChEMBL document CHEMBL5390280, “Design, Synthesis, and Biological Evaluation of an Orally Bioavailable, Potent, and Selective ROCK2 Inhibitor for Psoriasis Treatment” (J Med Chem, 2023).
pIC50: −log10 of the molar value. Active and inactive are the calls of the source. No cut-off for these calls is given here.

Columns and labels:
[1] = Half life in Balb/c mouse at 40 mg/kg, po measured for 0.08 to 24 hrs by LC-MS/MS analysis; format: ADME, organism-based; conditions: in vivo, time 0.08-24 hrs
Mus musculus [2] = test: Anti-inflammatory activity in Balb/c mouse model of IMQ-induced skin inflammation assessed as decrease in Ki67+ cells in epidermis of dorsal skin at 80 mg/kg, po administered daily for 7 days by IHC analysis; format: functional, organism-based; conditions: time 7.0 day
HaCaT [3] = test: Anti-psoriasis effect in KGF-stimulated human HaCaT cells assessed as decrease in elastin level at 2 to 5 uM incubated for 24 hrs by Western blot analysis; format: functional, cell-based; conditions: dose 2-5 µM
[4] = AUC (0 to t) in Balb/c mouse at 10 mg/kg, iv measured for 0.08 to 24 hrs by LC-MS/MS analysis; format: ADME, organism-based; set-up: time upper 24 hrs, time lower 0.08 hrs, dose 10 mg/kg, route iv; conditions: in vivo
Mus musculus [5] = test: Anti-inflammatory activity in Balb/c mouse model of IMQ-induced skin inflammation assessed as decrease in CD3+ T cells in dorsal skin at 20 to 80 mg/kg, po administered daily for 7 days by high power field microscopy; format: functional, organism-based; conditions: T-cell, dose 20-80 mg/kg, time 7.0 day
Mus musculus [6] = test: Anti-inflammatory activity in Balb/c mouse model of IMQ-induced skin inflammation assessed as decrease in IL-17A mRNA level in dorsal skin at 80 mg/kg, po administered daily for 7 days by RT-qPCR analysis; format: functional, organism-based; conditions: time 7.0 day
Mus musculus [7] = test: Anti-inflammatory activity in Balb/c mouse model of IMQ-induced skin inflammation assessed as decrease in serum IL-17F level at 80 mg/kg, po administered daily for 7 days by IHC analysis; format: functional, organism-based; conditions: time 7.0 day
Mus musculus [8] = test: In vivo inhibition of ROCK2 in Balb/c mouse model of IMQ-induced skin inflammation assessed as decrease in pSTAT5+ cells in dorsal skin at 20 to 80 mg/kg, po administered daily for 7 days by high power field microscopy; format: functional, organism-based; conditions: dose 20-80 mg/kg, time 7.0 day
Mus musculus [9] = test: Anti-inflammatory activity in Balb/c mouse model of IMQ-induced skin inflammation assessed as reduction in epidermal thickness of dorsal skin at 40 to 80 mg/kg, po administered daily for 7 days by H and E staining based analysis; format: functional, organism-based; conditions: dose 40-80 mg/kg, time 7.0 day
HaCaT [10] = test: Anti-psoriasis effect in KGF-stimulated human HaCaT cells assessed as decrease in pSTAT3 level at 2 to 5 uM incubated for 24 hrs by Western blot analysis; format: functional, cell-based; conditions: dose 2-5 µM
[11] = target: Rho-associated protein kinase 2 (Homo sapiens, UniProt O75116); test: Inhibition of ROCK2 (unknown origin) by HTRF assay
Mus musculus [12] = test: Anti-inflammatory activity in Balb/c mouse model of IMQ-induced skin inflammation assessed as reduction in skin scales at 20 to 80 mg/kg, po administered daily for 7 days; format: functional, organism-based; conditions: dose 20-80 mg/kg, time 7.0 day
Mus musculus [13] = test: Anti-inflammatory activity in Balb/c mouse model of IMQ-induced skin inflammation assessed as decrease in IL-23 mRNA level in dorsal skin at 80 mg/kg, po administered daily for 7 days by RT-qPCR analysis; format: functional, organism-based; conditions: time 7.0 day
[14] = Cmax in Balb/c mouse at 40 mg/kg, po measured for 0.08 to 24 hrs by LC-MS/MS analysis; format: ADME, organism-based; set-up: time lower 0.08 hrs, dose 40 mg/kg, time upper 24 hrs, route po; conditions: in vivo

Rho-associated protein kinase 2, sequence (O75116 whole entry): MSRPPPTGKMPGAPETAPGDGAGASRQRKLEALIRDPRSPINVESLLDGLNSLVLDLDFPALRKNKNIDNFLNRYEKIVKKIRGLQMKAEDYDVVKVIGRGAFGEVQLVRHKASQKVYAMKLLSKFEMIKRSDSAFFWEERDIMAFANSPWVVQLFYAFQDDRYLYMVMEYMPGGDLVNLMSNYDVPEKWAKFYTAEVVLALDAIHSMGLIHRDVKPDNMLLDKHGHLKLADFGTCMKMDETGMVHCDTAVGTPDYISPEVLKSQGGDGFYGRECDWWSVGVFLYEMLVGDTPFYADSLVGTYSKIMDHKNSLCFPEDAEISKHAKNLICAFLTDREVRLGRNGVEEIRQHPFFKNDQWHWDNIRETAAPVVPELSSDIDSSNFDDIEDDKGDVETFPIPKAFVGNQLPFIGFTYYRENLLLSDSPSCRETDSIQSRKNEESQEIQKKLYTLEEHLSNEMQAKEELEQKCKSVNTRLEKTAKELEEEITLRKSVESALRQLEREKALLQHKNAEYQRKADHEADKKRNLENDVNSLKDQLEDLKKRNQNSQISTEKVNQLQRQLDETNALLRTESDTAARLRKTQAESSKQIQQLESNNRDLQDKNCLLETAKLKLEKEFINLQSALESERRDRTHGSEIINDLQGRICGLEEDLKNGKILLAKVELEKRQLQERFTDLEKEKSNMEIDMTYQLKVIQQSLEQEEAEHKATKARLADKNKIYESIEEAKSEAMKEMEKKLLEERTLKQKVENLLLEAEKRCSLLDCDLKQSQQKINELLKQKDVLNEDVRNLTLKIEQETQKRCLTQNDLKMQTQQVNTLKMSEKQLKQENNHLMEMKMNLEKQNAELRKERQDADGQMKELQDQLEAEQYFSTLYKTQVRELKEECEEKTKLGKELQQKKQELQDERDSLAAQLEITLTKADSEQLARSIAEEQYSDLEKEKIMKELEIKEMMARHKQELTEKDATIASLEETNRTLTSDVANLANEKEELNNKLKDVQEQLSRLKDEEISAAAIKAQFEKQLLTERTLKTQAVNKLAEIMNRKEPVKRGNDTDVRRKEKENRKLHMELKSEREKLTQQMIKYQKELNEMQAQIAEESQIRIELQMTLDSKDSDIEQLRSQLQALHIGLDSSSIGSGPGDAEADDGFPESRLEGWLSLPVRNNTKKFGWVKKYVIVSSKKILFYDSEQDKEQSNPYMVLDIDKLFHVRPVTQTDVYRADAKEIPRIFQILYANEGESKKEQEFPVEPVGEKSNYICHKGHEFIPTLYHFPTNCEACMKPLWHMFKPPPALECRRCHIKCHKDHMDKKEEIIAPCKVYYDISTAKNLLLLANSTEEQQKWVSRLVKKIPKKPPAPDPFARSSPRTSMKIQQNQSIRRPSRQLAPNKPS

SMILES: Cc1cc(=O)n(-c2cccc(CN[C@H]3CCC[C@H](Nc4ccc5[nH]ncc5c4)C3)c2)cc1F
- half-life [1]: 1.26 h
- Activity (Mus musculus [2]): Active
- Activity (HaCaT [3]): Active
- AUC(0-t) [4]: 1040 ng·h/mL
- Activity (Mus musculus [5]): Active
- Activity (Mus musculus [6]): Active
- Activity (Mus musculus [7]): inactive
- Activity (Mus musculus [8]): Active
- Activity (Mus musculus [9]): Active
- Activity (HaCaT [10]): Active
- pIC50 [11]: 8.43
- Activity (Mus musculus [12]): Active
- Activity (Mus musculus [13]): Active
- Cmax [14]: 226 ng/mL
